Measurements published in patent US5010174A, “Novel calcitonin derivative and salt thereof” (Mitsubishi Petrochemical Co., Ltd., priority 1987, dated 1991).

What was measured:
[1] = Stability test: heating in sodium citrate buffer, remaining peptide by reverse phase HPLC; conditions: for Stability (ratio of eluted peak area A after heating to area B without heat treatment): 0.1 M sodium citrate buffer pH 6.0, 10 μg/ml, sealed tube, 80° C., 24 hours, reverse phase HPLC
Protocol: The (Oct^1, Cys(CA)^7)-CCT was dissolved in 0.1 M sodium citrate buffer (pH 6.0) to a concentration of 10 μg/ml. One ml of this solution was left to stand in a sealed tube at 80° C. for 24 hours. By analysis according to the reverse phase HPLC by use of the measurement conditions (1), the eluted peak area A of the remaining (Oct^1, Cys(CA)^7)-CCT was determined. Similarly, the eluted peak area B of the (Oct^1, Cys(CA)^7)-CCT in the sample solution not subjected to the heat treatment was determined, and the ratio of A to B (%) was defined as the index.

[2] = Biological activity (calcitonin activity, MRC U/mg), assayed by the method of Japanese Provisional Patent Publication No. 123500/1985; type: in vivo; conditions: for biological activity: method of Japanese Provisional Patent Publication No. 123500/1985; for biological activity, in words, compared with Example 1: measured as in Example 1
Protocol: The crude (Oct^1, Cys(CA)^7)-CCT obtained was dissolved in a 1 M acetic acid (5 mg/ml) and purified by the reverse phase high performance liquid chromatography. Chemcopack ODS-H (trade name, .phi.: 10 mm×250 mm) column produced by Chemco Co. was used, with the eluents employed being water (100) - 10% TFA (1) for the eluent A and water (40)-acetonitrile (60) - 10% TFA (1) for the eluent B, and the elution was effected under the linear concentration gradient from the eluent A to the eluent B. Here, the numerals within bracckets represent volume ratios. The fraction corresponding to (Oct^1, Cys(CA)^7)-CCT was collected and lyophilized to obtain 2.8 mg of white powder. The biological activity of the white powder obtained was assayed according to the method as described in Japanese Provisional Patent Publication No. 123500/1985.

Substance | Stability (ratio of eluted peak area A after heating to area B without heat treatment) [1] | biological activity [2] | biological activity, in words, compared with Example 1 [2] | stability, in words, compared with Example 1 ([1]; measured as in Example 1)
(Oct^1, Ala^3, Cys(CA)^7)-CCT | 90% | 6100 MRC U/mg | – | –
(Oct^1, Cys(Acm)^7)-CCT | – | 5500 MRC U/mg | – | –
(Oct^1, Cys(Acm)^7)-ECT | – | 5400 MRC U/mg | – | –
(Oct^1, Cys(CA)^7)-CCT | 95% | 5400 MRC U/mg | equal to that obtained in Example 1 | –
(Oct^1, Cys^7)-CCT | – | – | substantially equal to those of (Oct^1, Cys(CA)^7)-CCT of Example 1 | substantially equal to those of (Oct^1, Cys(CA)^7)-CCT of Example 1
(Oct^1, Thr^3, Cys(Acm)^7)-CCT | 82% | 7800 MRC U/mg | – | –
(Oct^1, Thr^3, Cys(CA)^7)-CCT | 95% | 7800 MRC U/mg | – | –
